The record followed here is patent publication US5585373A, “3-(7'-oxo-1'-aza-4'-oxabicyclo[3.2.0]-hept-3'-YL)propionic acid derivative as antitumor agent” (priority 1994, dated 1996).

Converted amounts (≈) assume the structure as drawn.

As a reminder, the IC50 is the midpoint of a concentration-inhibition curve. Low readings indicate greater potency in that assay, high ones weaker potency in that assay.

For data set [1], the system named is KB cells. The data set can be described thus: In Vitro KB Cell Cytotoxicity Assay. Type of data set: cell-based. To be noted: Homo sapiens, 72 h, crystal violet staining, 3 days incubation. How it is done:
Pharmacological Test 1 (In Vitro KB Cell Cytotoxicity Assay)
The cytotoxicity against KB cells was determined in accordance with a protein staining method (Grillis et al., Anal. Biochem., 159, 109 (1986)) using crystal violet. Stated more specifically, KB cells were incubated in an Eagle's minimum medium containing 10% FCS in a CO2 incubator at 37° C. The number of the cells was counted with a hemocytometer. A 100 μl quantity of the cell suspension, 3×10^4 cells/ml, was placed into each well of a 96-well plate and incubated for 24 hours. Portions (100 μl) of the drug diluted to final concentrations of 10, 1, 0.1, 0.01 and 0.001 μg/ml were added, as one dosage, to three wells, respectively. A drug-free medium was added to the wells of the control group. After incubation for 3 days, 25 μl of 25% glutaraldehyde was added and fixed for 15 minutes, followed by washing with water and drying. A 100 μl quantity of 0.05% crystal violet was added for 15 minutes of staining, followed by washing with water and drying. Extraction was performed with 100 μl of 0.05M NaH2 PO4 /EtOH (1:1 volume ratio). The absorbance was measured at a wavelength of 540 nm with a multi-scan spectrophotometer. The percent cell growth inhibition was calculated based on the absorbance by the following equation [formula]
The IC50 value (concentration of the drug for inhibiting the cell growth by 50%) was calculated through log-logit transformation of the dose-response curve and linear regression.

Data set [2] relates to Sarcoma 180. The data set can be described thus: In Vivo Antitumor Activity against Sarcoma 180. To be noted: for Mortality in 12 days: intraperitoneal, every four days, three times, ICR mice; for Cell growth inhibition rate: ip. How it is done:
Pharmacological Test 2 (In Vivo Antitumor Activity against Sarcoma 180)
5×10^6 cells of transplantable mouse tumor, Sarcoma 180, were subcutaneously transplanted in the dorsal portion of 6-week-old male ICR mice (6-7 mice in each group). The test drug was dissolved in physiological saline containing 0.25 % Tween 80 and 3.5% dimethyl sulfoxide. The solution was intraperitoneally administered to the mice every four days, starting the administration 24 hours after the transplantation, three times in total. On the 12th day after the transplantation, the tumors were removed from the bodies and weighed. The average weight of the tumors in the test group and the corresponding weight in the control group were calculated to determine the ratio of tumor growth inhibition.

As to `O=C(OC(c1ccccc1)c1ccccc1)[C@H]([C@@H](OCc1ccccc1)[C@H]1CN2C(=O)C[C@H]2O1)N(Cc1ccccc1)C(=O)OCc1ccccc1` [Compound 43, diphenylmethyl 3-[(3'R,5'R)-7'-oxo-1'-aza-4'-oxabicyclo[3.2.0]hept-3'-yl]-2(S)-(N-benzyloxycarbonyl-N-benzyl)amino-3(R)-benzyloxypropionate], in data set [1], the 50% inhibitory concentration (IC50) is 3 µg/mL (≈ 4.31 µM).
Same read-out and setting: with `O=C(OC(c1ccccc1)c1ccccc1)[C@H]([C@@H](OCc1ccccc1)[C@H]1CN2C(=O)C[C@@H]2O1)N(Cc1ccccc1)C(=O)OCc1ccccc1` [Compound 42, diphenylmethyl 3-[(3'R,5'S)-7'-oxo-1'-aza-4'-oxabicyclo[3.2.0]hept-3'-yl]-2(S)-(N-benzyloxycarbonyl-N-benzyl)amino-3(R)-benzyloxypropionate] the figure was 3 µg/mL (≈ 4.31 µM); with `COc1ccc(CO[C@H]([C@H](N)C(=O)O)[C@H]2CN3C(=O)C[C@@H]3O2)cc1` [Compound 32d, 3-[(3'R,5'S)-7'-oxo-1'-aza-4'-oxabicyclo[3.2.0]hept-3'-yl]-2(S)-amino-3(R)-(4"-methoxybenzyl)oxypropionic acid], 0.09 µg/mL (≈ 0.268 µM).
Still for that read-out and setting: with `O=C(OCc1ccccc1)[C@H](O)[C@@H](O)[C@H]1CN2C(=O)C[C@@H]2O1` [Compound 4, benzyl(2R,3R)-2,3-dihydroxy-3-[(3'R,5'S)-7'-oxo-1'-aza-4'-oxabicylo[3.2.0]hept-3'-yl]propionate] the figure was 0.07 µg/mL (≈ 0.228 µM).
For `N[C@H](C(=O)O)[C@@H](OCc1ccccc1)[C@H]1CN2C(=O)C[C@@H]2O1` [Compound 32b, 3-[(3'R,5'S)-7'-oxo-1'-aza-4'-oxabicyclo[3.2.0]hept-3'-yl]-2(S)-amino-3(R)-benzyloxypropionic acid], the “Mortality in 12 days” value in data set [2] (0.1 mg/kg/day) and in data set [2] (1.0 mg/kg/day) was 0/6 throughout. Moreover, the “Cell growth inhibition rate” value in data set [2] (0.1 mg/kg) worked out at 12%; in data set [2] (1 mg/kg) it was 38%. 0.06 µg/mL (≈ 0.196 µM) corresponded to half-maximal inhibition in data set [1] (IC50).
In data set [1], `O=C(OCc1ccccc1)[C@@H](O)[C@H](O)[C@H]1CN2C(=O)C[C@@H]2O1` [Compound 5, benzyl(2S,3S)-2,3-dihydroxy-3-[(3'R,5'S)-7'-oxo-1'-aza-4'-oxabicyclo[3.2.0]hept-3'-yl]propionate] displayed a half-inhibitory concentration (IC50) of 0.3 µg/mL (≈ 0.976 µM).
Compound `CC(=O)O[C@@H]([C@H]1CN2C(=O)C[C@@H]2O1)[C@@H](N)C(=O)O` [Compound 12a, 3(R)-acetoxy-2(R)-amino-3-[(3'R,5'S)-7'-oxo-1'-aza-4'-oxabicyclo[3.2.0]hept-3'-yl]propionic acid] registered a 50% inhibitory concentration (IC50) in data set [1] of 3 µg/mL (≈ 11.6 µM).
Take `N[C@@H](C(=O)O)[C@@H](OC(=O)c1ccccc1)[C@H]1CN2C(=O)C[C@@H]2O1` [Compound 12b, 2(R)-amino-3(R)-benzoyloxy-3-[(3'R,5'S)-7'-oxo-1'-aza-4'-oxabicyclo[3.2.0]hept-3'-yl]propionic acid]: the “Mortality in 12 days” value in data set [2] (5 mg/kg/day), in data set [2] (10 mg/kg/day) and in data set [2] (20 mg/kg/day) was 0/7 in each case. The “Cell growth inhibition rate” value is 19% in data set [2] (5 mg/kg), 19% in data set [2] (10 mg/kg) and 31% in data set [2] (20 mg/kg). For the same compound, in data set [1], the IC50 turned out to be 0.3 µg/mL (≈ 0.937 µM).
On to `N[C@H](C(=O)O)[C@@H](OCc1ccc(F)cc1)[C@H]1CN2C(=O)C[C@@H]2O1` [Compound 32c, 3-[(3'R,5'S)-7'-oxo-1'-aza-4'-oxabicyclo[3.2.0]hept-3'-yl]-2(S)-amino-3(R )-(4"-fluorobenzyl)oxy-propionic acid], for which the half-inhibitory concentration (IC50) in data set [1] was found to be 0.04 µg/mL (≈ 0.123 µM).
In data set [1], `CO[C@H]([C@H](N)C(=O)O)[C@H]1CN2C(=O)C[C@@H]2O1` [Compound 32a, 3-[(3'R,5'S)-7'-oxo-1'-aza-4'-oxabicyclo[3.2.0]hept-3'-yl]-2(S)-amino-3(R)-methoxypropionic acid] had a half-maximal inhibitory concentration (IC50) of 0.03 µg/mL (≈ 0.13 µM).
In data set [1], `N[C@H](C(=O)O)[C@@H](OCC1CC1)[C@H]1CN2C(=O)C[C@@H]2O1` [Compound 32e, 3-[(3'R,5'S)-7'-oxo-1'-aza-4'-oxabicyclo[3.2.0]hept-3'-yl]-2(S)-amino-3(R )-cyclopropylmethyloxypropionic acid] showed a half-inhibitory concentration (IC50) of 0.4 µg/mL (≈ 1.48 µM).
Compound `O=C(OCc1ccccc1)[C@H](O)[C@H](O)[C@H]1CN2C(=O)C[C@@H]2O1` [Compound 7, benzyl(2R,3S)-2,3-dihydroxy-3-[(3'R,5'S)-7'-oxo-1'-aza-4'-oxabicyclo[3.2.0]hept-3'-yl]propionate] yielded an IC50 in data set [1] of 0.09 µg/mL (≈ 0.293 µM).
For the compound `O=C(OCc1ccccc1)[C@@H](O)[C@@H](O)[C@H]1CN2C(=O)C[C@@H]2O1` [Compound 6, benzyl (2S,3R)-2,3-dihydroxy-3-[(3'R,5'S)-7'-oxo-1'-aza-4'-oxabicylo[3.2.0]hept-3'-yl]propionate], 0.09 µg/mL (≈ 0.293 µM) corresponded to half-maximal inhibition in data set [1] (IC50).
